Assay [1] addresses T1, PKAR3 (protein kinase A regulatory subunit 3) (Leishmania donovani, UniProt A0A3S7X836).
T1 construct: gene LdCL_340034800
Nature of the assay: isothermal titration calorimetry (ITC), one-site model. The assay is classed as binding.

For assay [2], the target named is subpellicular microtubules (SPMT) of L. donovani promastigotes, detected as β-tubulin (L. donovani (endogenous in promastigotes)). The assay is described as follows: FRET or BRET; fixed L. donovani promastigotes labelled with primary antibodies and secondary antibodies with Alexa Fluor 568 (donor) and 647 (acceptor); corrected acceptor FRET (Youvan), confocal microscopy.

T1 sequence (A0A3S7X836 entry or part of it): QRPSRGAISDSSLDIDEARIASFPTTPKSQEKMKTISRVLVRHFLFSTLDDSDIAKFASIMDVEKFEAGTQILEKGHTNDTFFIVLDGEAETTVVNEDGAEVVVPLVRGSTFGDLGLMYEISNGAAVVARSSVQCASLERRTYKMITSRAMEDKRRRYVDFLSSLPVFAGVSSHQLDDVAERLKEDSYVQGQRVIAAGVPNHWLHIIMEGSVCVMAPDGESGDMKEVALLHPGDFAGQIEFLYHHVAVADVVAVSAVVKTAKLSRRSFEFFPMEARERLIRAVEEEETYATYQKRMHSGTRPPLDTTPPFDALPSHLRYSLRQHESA

Turning to `N#Cc1cn([C@@H]2O[C@H](CO)[C@@H](O)[C@H]2O)c2ncnc(O)c12` [7-CN-7-C-Ino, 7-cyano-7-deaza-inosine], in assay [1], the Kd came to 1 nM.

Regarding `N#Cc1cn([C@@H]2O[C@H](CO)[C@@H](O)[C@H]2O)c2ncnc(N)c12` [Toyo, Toyocamycin], in assay [1], the Kd came out at 3.8 nM.

“L. donovani PKAR3 lacking the N-terminal 90 amino acids (domain or fragment)” yielded a decrease of FRET-positive pixels per cell against PKAR3FL in assay [2] of 30%.
